Laboratory results as given in paper PMC8389614, “A Comparison of Acute Pharmacological Effects of Methylone and MDMA Administration in Humans and Oral Fluid Concentrations as Biomarkers of Exposure” (Biology, 2021).
Read-outs that look alike come from different tables or passages of the source.

Columns and labels:
healthy poly-drug users [1] = assay: Physiological effects (non-invasive SBP, DBP, HR, cutaneous temperature) after oral self-administration; assay type: in vivo, humans; parameters: key to HR Dunnet’s Test: “a” (times 0–1 h); “b” (times 0–2 h); “c” (times 0–4 h); not significant (NS); conditions: for DBP AUC0–4h / DBP Emax / HR AUC0–4h / HR Emax / SBP AUC0–4h / SBP Emax / Variation in cutaneous temperature: oral; for DBP AUC0–4h / DBP Emax / HR AUC0–4h / HR Emax / SBP AUC0–4h / SBP Emax: methylone 100–300 mg n=8, MDMA 75–100 mg n=6, baseline-adjusted, mean ± SD; for Variation in cutaneous temperature: methylone 100–300 mg, MDMA 75–100 mg, versus baseline, 0–4 h; for DBP Dunnet’s Test / HR Dunnet’s Test / SBP Dunnet’s Test: time points significantly different from baseline
Excerpt: (§1) The study was designed as a non-controlled prospective observational study in a naturalistic setting with methylone and MDMA self-administration. The methodology, including procedures and evaluations, coincides with previous observational–naturalistic studies aimed at evaluating the acute effects of other NPS [38, 39, 40]. Six subjects (5 M, 1 F) self-administered MDMA and 8 subjects (5 M, 3 F) self-administered methylone. Each subject participated only in one session. Participants brought their own substance obtained from an unknown source, which was tested by Energy Control, a harm reduction organization that provides a drug checking service to drug users. Pills containing methylone and MDMA were analyzed by gas chromatography associated with mass spectrometry (GC/MS), a technique that traces the presence of the most frequent drugs of abuse, such as MDMA, cocaine, heroin, amphetamine and methamphetamine, LSD, and multiple NPS (methylone, mephedrone, and other synthetic cathinones, synthetic cannabinoids, tryptamines, among others).
(§2) In both sessions, participants selected the dose of methylone or MDMA according to their previous drug use experience. Doses of methylone could be selected from a range (75–300 mg) that was previously defined according to the consulted literature. The WHO Expert Committee on Drug Dependence (Thirty-Sixth Meeting, Geneva, Switzerland, 16–20 June 2014) established that 60 mg of methylone was the threshold dose and doses over 250 mg were often related to very strong activity. Some users have reported uses of 300 mg of methylone as a common dose [www.erowid.org] (accessed on 15 June 2021). The mean of the selected doses of MDMA was 87.50 mg (3 subjects ingested 75 mg (2 males and 1 female), 3 males 100 mg). In the other study session, methylone doses ranged from 100 to 300 mg, with a mean of 187.50 mg. Based on their dose selection, 1 male ingested 100 mg, 2 subjects 150 mg (1 male and 1 female), 4 subjects 200 mg (2 males and 2 females), and 1 male 300 mg.
(§3) The sessions were conducted in a naturalistic setting. Participants were allowed to talk, read, listen to music, or play games, except during the evaluation times. However, they were asked to refrain from talking about the effects of the substance. All the subjects were evaluated simultaneously at baseline, 1, 2, and 4 h after administration of methylone or MDMA, which occurred approximately at 16:00 h. At each time point, evaluations were followed in a specific order: physiological effects, oral fluid collection, and subjective effects scales and questionnaires.
Non-invasive systolic blood pressure (SBP), diastolic blood pressure (DBP), and heart rate (HR) were measured with subjects in the sitting position, using an automatic Omron monitor at baseline, 1, 2, and 4 h (h) after self-administration. Cutaneous temperature was determined at the same time points.
(§4) Vital signs (SBP, DBP, and HR) and subjective effects (VAS, ARCI, and VESSPA-SSE) were baseline-adjusted. Maximum effects and the time in which maximum effects appeared were determined, and the area under the curve (AUC0–4h) was calculated with the trapezoidal rule.
(§5) Thirdly, to find possible significant changes from baseline, a Dunnett multiple comparison test was conducted to compare each time point with baseline in both drug conditions (0–1 h, 0–2 h, 0–4 h).

healthy poly-drug users [2] = assay: Subjective effects, ARCI 49-item short form; assay type: in vivo, humans; parameters: key to ARCI PCAG Dunnet’s Test: “a” (times 0–1 h); “b” (times 0–2 h); “c” (times 0–4 h); not significant (NS); conditions: for ARCI A (increased energy) AUC0–4h / ARCI A (increased energy) Emax / ARCI BG (intellectual efficiency) AUC0–4h / ARCI BG (intellectual efficiency) Emax / ARCI MBG (euphoria) AUC0–4h / ARCI MBG (euphoria) Emax / ARCI PCAG (sedation) AUC0–4h / ARCI PCAG (sedation) Emax / ARCI A (increased energy) Tmax: oral, methylone 100–300 mg n=8, MDMA 75–100 mg n=6; for ARCI A (increased energy) AUC0–4h / ARCI A (increased energy) Emax / ARCI BG (intellectual efficiency) AUC0–4h / ARCI BG (intellectual efficiency) Emax / ARCI MBG (euphoria) AUC0–4h / ARCI MBG (euphoria) Emax / ARCI PCAG (sedation) AUC0–4h / ARCI PCAG (sedation) Emax: baseline-adjusted, mean ± SD; for ARCI A (increased energy) Tmax: median (min–max); for ARCI A Dunnet’s Test / ARCI BG Dunnet’s Test / ARCI MBG Dunnet’s Test / ARCI PCAG Dunnet’s Test: time points significantly different from baseline
Excerpt: as §1, §2, §3
Subjective effects were evaluated at baseline, 1, 2, and 4 h after self-administration using visual analogue scales (VAS), the Addiction Research Center Inventory (ARCI), and the Evaluation of Subjective Effects of Substances with Abuse Potential questionnaire (VESSPA-SSE).
The standardized ARCI 49-item short form is a true/false questionnaire used to evaluate the subjective effects of drugs of abuse. This inventory includes five subscales that assess pentobarbital–chlorpromazine–alcohol-like effects (PCAG, sedation), morphine–benzedrine-like effects (MBG, euphoria), lysergic acid diethylamide-like effects (LSD, dysphoria), benzedrine-like effects (BG, intellectual efficiency), and amphetamine-like effects (A, increased energy).
as §4, §5

[3] = Oral fluid concentrations (Salivette, LC-MS/MS); assay type: in vivo, humans; conditions: both sexes, human; for Cmax / AUC(0-t): methylone 100–300 mg n=8, MDMA 75–100 mg n=6, mean ± SD; for AUC(0-t): read-out: Oral fluid AUC0–4 h; for Tmax: methylone 100–300 mg n=8, MDMA 75–100 mg n=6, median (min–max)
Experimental: In both sessions, oral fluid samples were collected with Salivette to determine methylone and MDMA concentrations in oral fluid at baseline, 1 h, 2 h, and 4 h. All samples were centrifuged after collection and stored frozen at −20 °C until analysis. Methylone and MDMA oral fluid concentrations were quantified via liquid chromatography tandem–mass spectrometry (LC–MS/MS).
For oral fluid concentrations of MDMA and methylone, only a descriptive analysis was presented showing main pharmacokinetics data such as the maximum concentration (Cmax), the time required to reach maximum concentrations (Tmax), and AUC0–4h. These parameters were calculated using the Pharmacokinetic Functions for Microsoft Excel (Joel Usansky, Atul Desai, and Diane Tang-Liu, Department of Pharmacokinetics and Drug Metabolism, Allergan, Irvine, CA, USA).

5-HT2C receptors = tested on: 5-HT2C receptors; parameters: method as in PMID 25237120, PMID 23583454; conditions: cited from earlier work
[4] = cited from earlier work; for Median overall OF/B ratio: oral fluid vs plasma
users = tested on: users; parameters: method as in earlier work; conditions: cited from earlier work
5-HT2A receptors = tested on: 5-HT2A receptors; parameters: method as in PMID 25237120, PMID 23583454; conditions: significantly lower potencies than MDMA; cited from earlier work
CYP2D6 = conditions: limited contribution of CYP1A2, CYP2B6, CYP2C19; cited from earlier work
[5] = oral administration, user reports

| SMILES | DBP AUC0–4h (healthy poly-drug users [1]) | DBP Emax (healthy poly-drug users [1]) [mmHg] | HR AUC0–4h (healthy poly-drug users [1]) | HR Emax (healthy poly-drug users [1]) [bpm] | SBP AUC0–4h (healthy poly-drug users [1]) | SBP Emax (healthy poly-drug users [1]) [mmHg] | Variation in cutaneous temperature (healthy poly-drug users [1]) | DBP Dunnet’s Test (healthy poly-drug users [1]) | HR Dunnet’s Test (healthy poly-drug users [1]) | SBP Dunnet’s Test (healthy poly-drug users [1]) | ARCI A (increased energy) AUC0–4h (healthy poly-drug users [2]) | ARCI A (increased energy) Emax (healthy poly-drug users [2]) [score] | ARCI BG (intellectual efficiency) AUC0–4h (healthy poly-drug users [2]) | ARCI BG (intellectual efficiency) Emax (healthy poly-drug users [2]) [score] | ARCI MBG (euphoria) AUC0–4h (healthy poly-drug users [2]) | ARCI MBG (euphoria) Emax (healthy poly-drug users [2]) [score] | ARCI PCAG (sedation) AUC0–4h (healthy poly-drug users [2]) | ARCI PCAG (sedation) Emax (healthy poly-drug users [2]) [score] | ARCI A (increased energy) Tmax (healthy poly-drug users [2]) | ARCI A Dunnet’s Test (healthy poly-drug users [2]) | other results |
| --- | --- | --- | --- | --- | --- | --- | --- | --- | --- | --- | --- | --- | --- | --- | --- | --- | --- | --- | --- | --- | --- |
| CNC(C)Cc1ccc2c(c1)OCO2 (stereo not drawn) [MDMA, 3,4-methylenedioxymethamphetamine] | 78.92 ± 30.33 | 32.17 ± 11.29 | 23.83 ± 38.73 | 10.67 ± 18.22 | 107.67 ± 44.34 | 46.83 ± 20.83 | Neither of the substances caused significant variations | a, b | NS | a, b | 15.75 ± 2.79 | 5.83 ± 1.17 | 9.83 ± 6.38 | 4.67 ± 2.25 | 20.83 ±10.05 | 8.0 ± 3.35 | −1.58 ± 8.39 | −0.83 ± 3.54 | 1.0 (1.0–2.0) h | a, b, c | ARCI BG Dunnet’s Test (healthy poly-drug users [2]): a, b; ARCI MBG Dunnet’s Test (healthy poly-drug users [2]): a, b; ARCI PCAG Dunnet’s Test (healthy poly-drug users [2]): NS; Cmax [3]: 2940 ± 2760 ng/mL; AUC(0-t) [3]: 6590 ± 5230 ng·h/mL; Tmax [3]: 2 h; Activity at 5-HT2C receptors (5-HT2C receptors): partial agonist rather than an antagonist; Maximum oral fluid to blood (OF/B) ratio ([4]; at 1.5 h after a 100 mg dose): 18.1 ± 7.9; Median overall OF/B ratio ([4]; high dose 1.6 mg/kg): 6.0; Median overall OF/B ratio ([4]; low dose 1.0 mg/kg): 5.2 |
| CNC(C)C(=O)c1ccc2c(c1)OCO2 (stereo not drawn) [Methylone, 3,4-methylenedioxymethcathinone] | 55.19 ± 31.02 | 19.63 ± 13.96 | 52.06 ± 39.16 | 20.50 ± 19.78 | 80.81 ± 42.89 | 31.25 ± 14.77 | Neither of the substances caused significant variations | a, b, c | a | a, b, c | 12.56 ± 7.77 | 5.38 ± 3.29 | 10.06 ± 7.83 | 4.63 ± 3.34 | 16.63 ± 13.21 | 7.5 ± 5.13 | −2.75 ± 3.73 | −1.25 ± 1.58 | 1.5 (1.0–4.0) h | a, b | ARCI BG Dunnet’s Test (healthy poly-drug users [2]): a, b; ARCI MBG Dunnet’s Test (healthy poly-drug users [2]): a, b; ARCI PCAG Dunnet’s Test (healthy poly-drug users [2]): a; Cmax [3]: 15500 ng/mL; AUC(0-t) [3]: 40600 ng·h/mL; Tmax [3]: 2 h; Threshold dose (users; WHO Expert Committee on Drug Dependence): 60 mg; Onset of effects after administration (users; [5]): 15 to 60 min; Time of peak effects (users; [5]): 60 to 90 min; Total duration of effects (users; [5]): 3 to 5 h; Affinity for binding 5-HT2A receptors (5-HT2A receptors): some affinity; Activity at 5-HT2C receptors (5-HT2C receptors): weak antagonist effects; Enzymes metabolizing the substance in the liver (CYP2D6): principally by the enzymatic activity of CYP2D6 |
